Data reported in patent publication US6603023B2 (priority 1996, dated 2003).
Read-outs that look alike come from different tables or passages of the source. Marks after values point to notes of the source that are not given here.

What was measured:
CCRF-CEM/VBL100 = test: cells; type: cell-based, human
Protocol: (§1) The drug-resistant cell lines were continuously cultured in the presence of the selecting agent, AD, DX, VBL or VM to maintain the drug resistant phenotypes. […] All cells were cultured in RPMI 1640-10% FBS at 37° C. 5% CO2 (see below).
(§2) The cells were cultured at an initial density of 5×10^4 cells/mL. They were maintained in a 5% CO2-humidified atmosphere at 37° C. in RPMI-1640 medium (GIBCO-BRL, Gaithersburg, Md.) containing penicillin (100 U/mL), streptomycin ([…]) (GIBCO-BRL) and 10% heat inactivate fetal bovine serum. Culture for cell suspension (such as for CCRF-CEM, P388 and sublines), were performed by the XTT-microculture tetrazonium method (Scudiero, D. A. et al., Cancer Res. 1988, 48, 4827-4833) in duplicate in 96-well microtiter plates.
(§3) 2′,3′-Bis(methoxy-4-nitro-5-sufophenyl)-5-[(phenylamino)carbonyl]2H-tetrazolium hyudroxide (XTT) was prepared at 1 mg/mL in prewarmed (37° C.) medium without serum. Phenazine methosulfate (PMS) and fresh XTT were mixed together to obtain 0.025 mM PMS-XTT solution (25 μL of the stock 5 mM PMS was added per 5 mL of 1 mg/mL XTT). Following a 72 h incubation, 50 μL of the assay aliquots were added to each well of the cell culture. After incubation at 37° C. for 4 h, absorbance at 450 nm and 630 nm was measured with a microplate reader (EL340, Bio-Tek Instruments, Inc., Winooski, Vt.).

CCRF-CEM/VM1 = test: cells; type: cell-based, human
Protocol: as §1, §2, §3

DC-3F/ADX = test: cells; type: cell-based, hamster; details: Table 3; read-out: IC50
Protocol: (§4) The DC-3F hamster lung fibroblast cell line and its actinomycin D-selected sublines (DC-3F/ADII and DC-3F/ADX) were obtained from the Memorial Sloan-Kettering Cancer Center (MSKCC).
as §1
(§5) The cytotoxicity of the drug toward the monolayer cell cultures (such as DC-3F, MCF-7, SK-N-As and sublines) was determined in 96-well microtiter plates by the SRB method as described by Skehan and co-workers (Skehan, P., et al., J. Natl. Cancer Inst. 1990, 82, 1107-1112) for measuring the cellular protein content. Cultures were fixed with trichloroacetic acid and then stained for 30 min with 0.4% suforhodamine B dissolved in 1% acetic acid. Unbound dye was removed by acetic acid washes, and the protein-bound dye was extracted with an unbuffered Tris base (tris(hydroxy-methyl)aminomethane) for determination of absorbance at 570 nm in a 96-well microtiter plate reader. The experiments were carried out in duplicate. Each run entailed six to seven concentrations of the tested drugs. Data were analyzed with the median-effect plot (Chou, T.-C. & Talalay, P. T. (1984) Adv. Enzyme Regul. 22, 27-55) using a previously described computer program (Chou, J., & Chou T.-C. 1987, Dose-effect analysis with microcomputers: Quantitation of ED50, synergism, antagonism, low-dose risk, reception-ligand binding and enzyme kinetics, IBM-PC software and manual, Biosoft, Cambridge, U.K.).
(§6) Concerning Table 3, experiments were carried out using the cell lines DC-3F (parent hamster lung cells), DC-3F/ADII (moderate multidrug-resistant (MDR) cells) and DC-3F/ADX (very strong MDR cells).

DC-3F/ADII = test: SRB cytotoxicity, DC-3F/ADII; type: cell-based, hamster; details: Table 3; read-out: IC50
Protocol: as §4, §1, §5, §6

[1] = tested on: CCRF-CEM human T-cell acute lymphoblastic leukemia cell line; test: XTT cytotoxicity (cell growth inhibition), CCRF-CEM
Protocol: as §4, §1, §2, §3

[2] = tested on: DC-3F hamster lung fibroblast cell line; test: SRB cytotoxicity, DC-3F; type: cell-based; details: Table 3; read-out: IC50
Protocol: as §4, §1, §5

[3] = Table 2, CCRF-CEM/VLB, read-out: IC50
[4] = Table 2, CCR-CEM/VM-1, read-out: IC50
[5] = Table 6, single determinations, read-out: IC50
[6] = Table 7, CEM/VBL, read-out: IC50
[7] = Table 2A, MDR cell line, read-out: IC50 (B)
[8] = Table 2A, Topo II gene mutated cell line, read-out: IC50 (C)
[9] = read-out: IC50 (A), Table 2A, parent cell line
[10] = Table 6, single determinations, listed as 6, read-out: IC50
[11] = Table 6, single determinations, listed as 9, read-out: IC50
[12] = Table 6, single determinations, listed as EPOTHILONE B (Natural), read-out: IC50

C/C(=C\c1csc(C)n1)[C@@H]1C[C@@H]2O[C@@H]2CCC[C@H](C)[C@H](O)[C@@H](C)C(=O)C(C)(C)[C@@H](O)CC(=O)O1 [EPOTHILONE A SYNTHETIC, epothilone A]
IC50 (CCRF-CEM/VBL100; [3]): 0.0203 µM
IC50 (CCRF-CEM/VBL100; Table 5, CCRF-CEM/VLB, single determinations, read-out: IC50): 0.015 µM
IC50 (CCRF-CEM/VM1; [4]): 0.0034 µM
IC50 (DC-3F/ADX): 0.07 µM
IC50 (DC-3F/ADII): 0.0132 µM
IC50 ([1]; Table 2): 0.0029 µM
IC50 ([1]; Table 5, single determinations): 0.0021 µM
IC50 [2]: 0.00354 µM

C/C(=C\c1csc(C)n1)[C@@H]1C/C=C\CCCC[C@H](O)[C@@H](C)C(=O)C(C)(C)[C@@H](O)CC(=O)O1 [#14, Desmethyldesoxyepothilone A]
IC50 (CCRF-CEM/VBL100; Table 1, XTT, read-out: IC50): 5.75 µM
IC50 (CCRF-CEM/VBL100; [5]): 5.75 µM
IC50 (CCRF-CEM/VBL100; [6]): 5.75 µM
IC50 (CCRF-CEM/VM1; Table 1, XTT, read-out: IC50): 6.29 µM
IC50 (CCRF-CEM/VM1; [5]): 6.29 µM
IC50 ([1]; Table 1, XTT): 5 µM
IC50 ([1]; Table 6, single determinations): 5.42 µM
IC50 ([1]; Table 7, CEM): 5.42 µM
times less active than corresponding epothilone A counterpart (cytotoxicity) ([1]; see Table 1): approximately 200 times

C/C(=C\c1csc(C)n1)[C@@H]1C[C@H]2O[C@H]2CCCC[C@H](O)[C@@H](C)C(=O)C(C)(C)[C@@H](O)CC(=O)O1 [#16]
IC50 (CCRF-CEM/VBL100; [5]): 16.5 µM
IC50 (CCRF-CEM/VBL100; [6]): 16.5 µM
IC50 (CCRF-CEM/VM1; [5]): 0.976 µM
IC50 ([1]; Table 6, single determinations): 7.47 µM
IC50 ([1]; Table 7, CEM): 7.47 µM

CC(=Cc1csc(C)n1)C1CC=CCCCC(C)C(O)C(C)C(O)C(C)(C)C(O)CC(=O)O1 (stereo not shown) [#2]
IC50 (CCRF-CEM/VBL100; [3]): 6.28 µM
(B)/(A) ratio (fold resistance >1, collateral sensitivity <1) (CCRF-CEM/VBL100; Table 2A): (0.44)^b
IC50 (CCRF-CEM/VBL100; [7]): 6.28 µM
IC50 (CCRF-CEM/VBL100; [5]): 6.28 µM
IC50 (CCRF-CEM/VBL100; [6]): 6.28 µM
IC50 (CCRF-CEM/VM1; [4]): 43.9 µM
(C)/(A) ratio (fold resistance >1, collateral sensitivity <1) (CCRF-CEM/VM1; Table 2A): (309)^a
IC50 (CCRF-CEM/VM1; [8]): 43.9 µM
IC50 (CCRF-CEM/VM1; [5]): 43.9 µM
IC50 (DC-3F/ADX): 4.81 µM
IC50 (DC-3F/ADII): 4.6 µM
IC50 ([1]; Table 2): 14.2 µM
IC50 ([1]; Table 6, single determinations): 14.2 µM
IC50 ([1]; Table 7, CEM): 14.2 µM
IC50 [1, 9]: 14.2 µM
IC50 [2]: 10.3 µM

epothilone B
relative resistance (fold) vs parent cell line (CCRF-CEM/VBL100; Table 6): (6.1X)
IC50 (CCRF-CEM/VBL100; [5]): 0.0021 µM
relative resistance (fold) vs parent cell line (CCRF-CEM/VM1; Table 6): (3.6X)
IC50 (CCRF-CEM/VM1; [5]): 0.0012 µM
IC50 ([1]; Table 6, single determinations): 0.00033 µM

CC(=Cc1csc(C)n1)C1CC=CCCCC(C)C(O)C(C)C(=O)C(C)(C)C(O)CC(=O)O1 (stereo not shown) [#6]
IC50 (CCRF-CEM/VBL100; [10]): 0.035 µM
IC50 (CCRF-CEM/VBL100; Table 7, CEM/VBL, listed as 6, read-out: IC50): 0.035 µM
IC50 (CCRF-CEM/VBL100; read-out: IC50): 0.035 µM
IC50 (CCRF-CEM/VM1; [10]): 0.111 µM
IC50 [1]: 0.052 µM
Rel. Value (potency relative to Epo B) ([1]; CCRF-CEM leukemic cells): 1/149
IC50 ([1]; Table 6, single determinations, listed as 6): 0.052 µM
IC50 ([1]; Table 7, CEM, listed as 6): 0.052 µM

C/C(=C\c1csc(C)n1)[C@@H]1C[C@@H]2O[C@]2(C)CCC[C@H](C)[C@H](O)[C@@H](C)C(=O)C(C)(C)[C@@H](O)CC(=O)O1 [#9, epothilone B]
relative resistance (fold) vs parent cell line (CCRF-CEM/VBL100; Table 6): (7.0X)
IC50 (CCRF-CEM/VBL100; [11]): 0.0026 µM
IC50 (CCRF-CEM/VBL100; [12]): 0.0017 µM
IC50 (CCRF-CEM/VBL100; Table 7, CEM/VBL, listed as natural epothitone B, read-out: IC50): 0.00263 µM
IC50 (CCRF-CEM/VM1; [11]): 0.0018 µM
IC50 (CCRF-CEM/VM1; [12]): 0.00077 µM
IC50 ([1]; Table 6, single determinations, listed as 9): 0.00044 µM
IC50 ([1]; Table 6, single determinations, listed as EPOTHILONE B (Natural)): 0.00017 µM
IC50 ([1]; Table 7, CEM, listed as natural epothitone B): 0.00044 µM

CC(=Cc1csc(C)n1)C1CC2OC2CC=CCCCCC(C)(C)CCC(=O)O1 (stereo not shown) [#3]
IC50 (CCRF-CEM/VBL100; [3]): 22.4 µM
(B)/(A) ratio (fold resistance >1, collateral sensitivity <1) (CCRF-CEM/VBL100; Table 2A): (0.082)^b
IC50 (CCRF-CEM/VBL100; [7]): 22.4 µM
IC50 (CCRF-CEM/VBL100; [5]): 22.4 µM
IC50 (CCRF-CEM/VBL100; [6]): 22.4 µM
IC50 (CCRF-CEM/VM1; [4]): 11.6 µM
(C)/(A) ratio (fold resistance >1, collateral sensitivity <1) (CCRF-CEM/VM1; Table 2A): (0.043)^b
IC50 (CCRF-CEM/VM1; [8]): 11.6 µM
IC50 (CCRF-CEM/VM1; [5]): 11.6 µM
IC50 (DC-3F/ADX): 0.972 µM
IC50 (DC-3F/ADII): 3 µM
IC50 ([1]; Table 2): 272 µM
IC50 ([1]; Table 6, single determinations): 272 µM
IC50 ([1]; Table 7, CEM): 272 µM
IC50 [1, 9]: 272 µM
IC50 [2]: 9.52 µM
